In article PMC5908784, “Extracellular loops 2 and 3 of the calcitonin receptor selectively modify agonist binding and efficacy” (Biochemical Pharmacology, 2018):
Numbering of substitutions follows the chain as printed. Where a SMILES comes first, the peptide text is derived from it. Bridges are numbered along the chain shown (N, C = ends).

Assays:
Assay in all cases: IP1 accumulation
Format in all cases: cell-based
Conditions in all cases: mean ± S.E.M.; for Emax: IP1 maximal response, SEM
hCTR R281A = target: T1, hCTR R281A (Homo sapiens, UniProt P30988, R281A)
T1 construct: expressed in transfected cells
T1 sequence (P30988 25-474 R281A): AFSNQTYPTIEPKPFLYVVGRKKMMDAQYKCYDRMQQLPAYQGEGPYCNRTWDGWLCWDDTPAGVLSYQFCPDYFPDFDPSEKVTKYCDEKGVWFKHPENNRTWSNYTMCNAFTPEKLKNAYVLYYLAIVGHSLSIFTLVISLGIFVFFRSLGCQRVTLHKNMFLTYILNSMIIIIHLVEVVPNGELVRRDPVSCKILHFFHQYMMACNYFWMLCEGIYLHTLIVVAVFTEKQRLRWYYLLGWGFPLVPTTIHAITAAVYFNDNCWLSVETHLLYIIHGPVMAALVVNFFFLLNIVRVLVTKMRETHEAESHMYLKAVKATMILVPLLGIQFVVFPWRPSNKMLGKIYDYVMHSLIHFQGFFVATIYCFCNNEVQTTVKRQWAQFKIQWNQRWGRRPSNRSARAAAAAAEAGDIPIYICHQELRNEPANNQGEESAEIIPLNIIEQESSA
In short: (§1)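 HTRF IP-One readout of IP1 after 60 min ligand stimulation (LiCl present), cells seeded overnight. Normalized to 100 μM ATP max response. EC50/Emax via 3-parameter logistic curve fit.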

hCTR K366A = target: T2, hCTR K366A (Homo sapiens, UniProt P30988, K366A)
T2 construct: c-Myc (N); expressed in transfected cells
T2 sequence (P30988 25-474 K366A): T1 sequence (P30988 25-474 R281A) with A257R, K342A
In short: as §1

hCTR V283A = target: T3, hCTR V283A (Homo sapiens, UniProt P30988, V283A)
T3 construct: expressed in transfected cells
T3 sequence (P30988 25-474 V283A): T1 sequence (P30988 25-474 R281A) with A257R, V259A
In short: as §1

hCTR H296A = target: T4, hCTR H296A (Homo sapiens, UniProt P30988, H296A)
T4 construct: c-Myc (N); expressed in transfected cells
T4 sequence (P30988 25-474 H296A): T1 sequence (P30988 25-474 R281A) with A257R, H272A
In short: as §1

hCTR N286A = target: T5, hCTR N286A (Homo sapiens, UniProt P30988, N286A)
T5 construct: c-Myc (N); expressed in transfected cells
T5 sequence (P30988 25-474 N286A): T1 sequence (P30988 25-474 R281A) with A257R, N262A
In short: as §1

[1] = IP1, CV1-FlpIn cells, 60 min, LiCl

EC50 (hCTR R281A; [1]) [nM] | EC50 (hCTR K366A; [1]) [nM] | EC50 (hCTR V283A; [1]) [nM] | EC50 (hCTR H296A; [1]) [nM] | EC50 (hCTR N286A; [1]) [nM] | Structure (SMILES) | Emax (hCTR R281A) [%] | Emax (hCTR K366A) [%] | Emax (hCTR V283A) [%] | Emax (hCTR H296A) [%] | Emax (hCTR N286A) [%]
2.24 | 1.48 | 6.17 | 4.47 | 0.562 | CSCC[C@H](NC(=O)CNC(=O)[C@H](CO)NC(=O)[C@H](Cc1ccccc1)NC(=O)[C@H](CCCNC(=N)N)NC(=O)[C@H](Cc1c[nH]cn1)NC(=O)[C@H](Cc1ccccc1)NC(=O)[C@H](CC(N)=O)NC(=O)[C@H](CC(N)=O)NC(=O)[C@H](CC(C)C)NC(=O)[C@H](CC(N)=O)NC(=O)[C@H](CCCNC(=N)N)NC(=O)[C@H](Cc1c[nH]c2ccccc12)NC(=O)[C@H](Cc1ccc(O)cc1)NC(=O)[C@H](C)NC(=O)[C@H](CO)NC(=O)[C@H](CC(C)C)NC(=O)[C@@H](NC(=O)[C@@H]1CSSC[C@H](N)C(=O)N[C@@H](CO)C(=O)N[C@@H](CC(N)=O)C(=O)N[C@@H](CC(C)C)C(=O)N[C@@H](CO)C(=O)N[C@@H]([C@@H](C)O)C(=O)N1)C(C)C)C(=O)NCC(=O)N[C@@H](Cc1ccccc1)C(=O)NCC(=O)N1CCC[C@H]1C(=O)N[C@@H](CCC(=O)O)C(=O)N[C@H](C(=O)N1CCC[C@H]1C(N)=O)[C@@H](C)O [pCT] (H-CSNLSTCVLSAYWRNLNNFHRFSGMGFGPETP-NH2; disulfide 1-7) | 52 ± 4 | 91 ± 6 | 100 ± 5 | 101 ± 7 | 76 ± 6
 |  |  |  |  | CC(C)C[C@H](NC(=O)[C@H](CCCCN)NC(=O)CNC(=O)[C@H](CC(C)C)NC(=O)[C@@H](NC(=O)[C@@H]1CSSC[C@H](N)C(=O)N[C@@H](CO)C(=O)N[C@@H](CC(N)=O)C(=O)N[C@@H](CC(C)C)C(=O)N[C@@H](CO)C(=O)N[C@@H]([C@@H](C)O)C(=O)N1)C(C)C)C(=O)N[C@@H](CO)C(=O)N[C@@H](CCC(N)=O)C(=O)N[C@@H](CCC(=O)O)C(=O)N[C@@H](CC(C)C)C(=O)N[C@@H](Cc1c[nH]cn1)C(=O)N[C@@H](CCCCN)C(=O)N[C@@H](CC(C)C)C(=O)N[C@@H](CCC(N)=O)C(=O)N[C@H](C(=O)N[C@@H](Cc1ccc(O)cc1)C(=O)N1CCC[C@H]1C(=O)N[C@@H](CCCNC(=N)N)C(=O)N[C@H](C(=O)N[C@@H](CC(N)=O)C(=O)N[C@H](C(=O)NCC(=O)N[C@@H](CO)C(=O)NCC(=O)N[C@H](C(=O)N1CCC[C@H]1C(N)=O)[C@@H](C)O)[C@@H](C)O)[C@@H](C)O)[C@@H](C)O [sCT] | 91 ± 6 | 93 ± 5 | 115 ± 6 | 101 ± 5 | 59 ± 5
 |  |  |  |  | CC[C@H](C)[C@H](NC(=O)[C@H](C)NC(=O)[C@@H](NC(=O)[C@H](CCC(N)=O)NC(=O)[C@@H]1CCCN1C(=O)[C@H](Cc1ccccc1)NC(=O)[C@@H](NC(=O)[C@H](Cc1c[nH]cn1)NC(=O)[C@H](Cc1ccccc1)NC(=O)[C@H](CCCCN)NC(=O)[C@H](CC(N)=O)NC(=O)[C@H](Cc1ccccc1)NC(=O)[C@H](CC(=O)O)NC(=O)[C@H](CCC(N)=O)NC(=O)[C@@H](NC(=O)[C@H](Cc1ccc(O)cc1)NC(=O)[C@@H](NC(=O)CNC(=O)[C@H](CC(C)C)NC(=O)[C@H](CCSC)NC(=O)[C@@H]1CSSC[C@H](N)C(=O)NCC(=O)N[C@@H](CC(N)=O)C(=O)N[C@@H](CC(C)C)C(=O)N[C@@H](CO)C(=O)N[C@@H]([C@@H](C)O)C(=O)N1)[C@@H](C)O)[C@@H](C)O)[C@@H](C)O)[C@@H](C)O)C(=O)NCC(=O)N[C@H](C(=O)NCC(=O)N[C@@H](C)C(=O)N1CCC[C@H]1C(N)=O)C(C)C [hCT] | 30 ± 4 | 121 ± 6 | 67 ± 6 | 73 ± 6 | 40 ± 3
